Laboratory results reported in patent US9102648B1, “Bioavailable diacylhydrazine ligands for modulating the expression of exogenous genes via an ecdysone receptor complex” (Intrexon Corporation, priority 2003, dated 2015).
Where two headings read alike, the source gives them in different places.

Experiments:
[1] = biological target: GAL4 DBD-CfEcR(DEF)/VP16AD-MmRXRE (Choristoneura fumiferana, UniProt O77240); test: 13B3 Assay (CHO stable cell line, luciferase reporter); settings: for Fold Induction, 13B3 Assay, 3.3 uM: 3.3 uM ligand; for Fold Induction, 13B3 Assay, 3.3 uM / Fold Induction, 13B3 Assay, 33 uM: RLU ligand treated / RLU DMSO treated cells; for Fold Induction, 13B3 Assay, 33 uM: 33 uM ligand; for 13B3 assay Rel Max FI: maximum fold induction at any concentration relative to that of GS-E ligand, CHO 13B3 cells
Outline: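 CHO 13B3 clone stably expressing GAL4 DBD–CfEcR(DEF) and VP16AD–MmRXR(DE) with GAL4 RE–luciferase reporter; cells plated 24 h at 37 °C, then treated with ligands (DMSO stocks diluted 300-fold), 8 concentrations 33–0.01 μM.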

[2] = biological target: GAL4 DBD (1-147)-CfEcR(DEF)/VP16AD-βRXREF-LmUSPEF (Choristoneura fumiferana, UniProt O77240); test: cell-based; settings: for Fold Induction, 27-63 Assay, 3.3 uM: 3.3 uM ligand; for Fold Induction, 27-63 Assay, 3.3 uM / Fold Induction, 27-63 Assay, 33 uM: RLU ligand treated / RLU DMSO treated cells; for Fold Induction, 27-63 Assay, 33 uM: 33 uM ligand; for 27-63 assay Rel Max FI: maximum fold induction at any concentration relative to that of GS-E ligand, CHO 27-63 cells
[3] = read-out: 13B3 EC50, CHO 13B3 stable cell line, luciferase reporter, 48 h, average of two wells
[4] = read-out: 27-63 assay EC50, CHO 27-63 stable cell line, luciferase reporter, average of two wells

Row | SMILES | Fold Induction, 13B3 Assay, 3.3 uM ([1]; average of two wells) | Fold Induction, 13B3 Assay, 33 uM ([1]; average of two wells) | 13B3 assay Rel Max FI [1] | EC50 [1, 3] | Fold Induction, 27-63 Assay, 3.3 uM ([2]; average of two wells) | Fold Induction, 27-63 Assay, 33 uM ([2]; average of two wells) | 27-63 assay Rel Max FI [2] | EC50 [2, 4] | EC50 [1] | fold induction at 3.3 µM ([1]; read-out: Fold Induction, 13B3 Assay, 3.3 uM) | fold induction at 33 µM ([1]; read-out: Fold Induction, 13B3 Assay, 33 uM) | EC50 [2] | fold induction at 3.3 µM ([2]; read-out: Fold Induction, 27-63 Assay, 3.3 uM) | fold induction at 33 µM ([2]; read-out: Fold Induction, 27-63 Assay, 33 uM)
1 | Cc1c(C(=O)NN(C(=O)c2cc(F)c(F)cc2F)C(C)(C)C)ccc2c1CCCO2 [RG-115229] | 599 | 709 | 0.418 | 2.25 µM | 2829 | 1423 | 0.735 | 1.15 µM |  |  |  |  |  | 
2 | CCc1c(C(=O)NN(C(=O)c2ccccc2OC)C(C)(C)C)ccc2c1OCCO2 [RG-115244] | 2404 | 573 | 0.663 | 0.369 µM | 2203 | 1847 | 0.785 | 0.169 µM |  |  |  |  |  | 
3 | CCc1c(OC)cccc1C(=O)NN(C(=O)c1cc(Cl)ccc1OC)C(C)(C)C [RG-115253] |  | 471 |  |  | 848 | 910 | 0.742 | 0.107 µM |  |  |  |  |  | 
4 | CCc1c(OC)cccc1C(=O)NN(C(=O)c1cc(Cl)ccc1[N+](=O)[O-])C(C)(C)C [RG-115257] | 820 | 354 | 0.742 | 0.886 µM | 1130 | 1320 | 0.663 | 0.698 µM |  |  |  |  |  | 
5 | CCc1c(OC)cccc1C(=O)NN(C(=O)c1cc(C)cc(C)c1)C(C)(C)C=NO [RG-115258, 2-ethyl-3-methoxy-benzoic acid N′-(3,5-dimethyl-benzoyl)-N′-(2-hydroxyimino-1,1-dimethyl-ethyl)-hydrazide] |  |  | 1.334 |  |  |  | 1.279 |  | 27.1 µM | 144 | 3740 | 1.88 µM | 1970 | 2210
6 | Cc1c(C(=O)NN(C(=O)c2cccc(F)c2)C(C)(C)C)ccc2c1CCCO2 [RG-115278] | 1950 | 1050 | 0.823 | 0.63 µM | 1250 | 906 | 0.720 | 0.885 µM |  |  |  |  |  | 
7 | CCc1c(C(=O)NN(C(=O)c2cc(Cl)nc(Cl)c2)C(C)(C)C)ccc2c1OCCO2 [RG-115297] | 1364 | 304 | 0.737 | 1.36 µM | 1544 | 946 | 0.986 | 0.33 µM |  |  |  |  |  | 
8 | CCc1c(OC)cccc1C(=O)NN(C(=O)c1cc(F)c(Cl)cc1Cl)C(C)(C)C [RG-115302] | 521 | 648 | 0.624 | 2 µM | 940 | 815 | 0.521 | 1.04 µM |  |  |  |  |  | 
9 | COc1cccc(C(=O)NN(C(=O)c2cc(C)cc(C)c2)C(C)(C)C)c1N [RG-115378] | 1778 | 2424 | 0.655 | 1.76 µM | 1493 | 1407 | 0.863 | 0.758 µM |  |  |  |  |  | 
10 | Cc1ccc([N+](=O)[O-])c(C(=O)N(NC(=O)c2ccc3c(c2C)OCCO3)C(C)(C)C)c1 [RG-115384] | 2753 | 2277 | 0.426 | 0.32 µM | 1713 | 1282 | 0.645 | 0.113 µM |  |  |  |  |  | 
